Test results from US11013736B2, “Oral solid preparation and use thereof” (WUHAN LL SCIENCE AND TECHNOLOGY DEVELOPMENT CO., LTD., priority 2016, dated 2021).
“Also recorded” adds a separate entry of the source.

Key:
[1] = Comparative experiment of stability between crystalline form III and IV (drying overnight at room temperature, XRD); format: physicochemical
Text: (4) Comparative experiment of stability between the crystalline form III and the crystalline form IV
The Crystalline form III and the crystalline form IV samples were respectively dried overnight at room temperature.

[2] = Comparative stability test (total impurity content); format: physicochemical; conditions: 25° C., 60% relative humidity; for total impurity content % at 0 months / total impurity content % at 1 month / total impurity content % at 2 months / total impurity content % at 3 months / total impurity content % at 6 months: packed
Method: The stability of an amorphous form, a mixture of the crystalline forms I and the crystal II, the crystalline form II and the crystal form III of the compound of formula (A) were investigated. Specifically, the amorphous form, the mixture of the crystalline form I and the crystalline form II (weight ratio 1:2), the crystalline form II and the crystalline form III were taken 200 mg respectively to be investigated as follows:
Packing: Polyvinyl chloride (PVC) material ziplock bag (the inner layer) was vacuumized, aluminum foil (the middle layer) was vacuumized, and aluminum foil desiccant (the outer layer) was vacuum and filled in with nitrogen;
Inspection conditions: 25° C., 60% relative humidity. The indicator was the total impurity content, which is determined by detection of samples three times at each time point with the average value recorded. The time points for sampling include 0, 1, 2, 3 and 6 months after packing.

[3] = Room temperature competition test between crystalline forms (ethyl acetate suspension, XRD); format: physicochemical; conditions: for Relative stability under room temperature (competition test): ethyl acetate suspension
Method: (1) Competition experiment between the crystalline form I and the crystalline form II
Equivalent amounts of the crystalline form I and the crystalline form II samples were mixed well, added with 0.8 ml ethyl acetate to form a suspension, stirred overnight and detected by XRD.
(2) Competition experiment between the crystalline form II and the crystalline form III
Equivalent amounts of the crystalline form II and the crystalline form III samples were mixed well, added with 0.2 ml ethyl acetate to form a suspension, which was stirred overnight to obtain the crystalline form II determined by XRD detection.
(3) Competition experiment between crystalline form I and crystalline form III
Equivalent amounts of the crystalline form I and the crystalline form III samples were mixed uniformly, added with 0.2 ml ethyl acetate to form a suspension, which was stirred overnight, to obtain the crystalline form I determined by XRD detection.

[4] = tested on: spontaneously hypertensive rats; experiment: Antihypertensive efficacy test in spontaneously hypertensive rats (systolic blood pressure and heart rate by implanted sensor); format: in vivo; conditions: SHR; for Systolic blood pressure compared with the control group: after 3 hours of administration; for Systolic blood pressure change, 1 hour after administration / Systolic blood pressure change, 3 hours after administration / Systolic blood pressure change, 5 hours after administration / Systolic blood pressure change, 7 hours after administration / Systolic blood pressure change, 10 hours after administration / Systolic blood pressure change, 24 hours after administration / Systolic blood pressure change, before administration: intragastric; for Systolic blood pressure change, 1 hour after administration / Systolic blood pressure change, 3 hours after administration / Systolic blood pressure change, 5 hours after administration / Systolic blood pressure change, 7 hours after administration / Systolic blood pressure change, 10 hours after administration / Systolic blood pressure change, 24 hours after administration / Heart rates change, 1 hour after administration / Heart rates change, 3 hours after administration / Heart rates change, 5 hours after administration / Heart rates change, 7 hours after administration / Heart rates change, 10 hours after administration / Heart rates change, 24 hours after administration: change vs before administration; for Systolic blood pressure change, 1 hour after administration / Systolic blood pressure change, 3 hours after administration / Systolic blood pressure change, 5 hours after administration / Systolic blood pressure change, 7 hours after administration / Systolic blood pressure change, 10 hours after administration / Systolic blood pressure change, 24 hours after administration / Systolic blood pressure change, before administration / Heart rates change, 1 hour after administration / Heart rates change, 3 hours after administration / Heart rates change, 5 hours after administration / Heart rates change, 7 hours after administration / Heart rates change, 10 hours after administration / Heart rates change, 24 hours after administration / Heart rates change, before administration: average ± standard error; for Systolic blood pressure change, before administration / Heart rates change, before administration: reference value; for Heart rates change, 1 hour after administration / Heart rates change, 3 hours after administration / Heart rates change, 5 hours after administration / Heart rates change, 7 hours after administration / Heart rates change, 10 hours after administration / Heart rates change, 24 hours after administration / Heart rates change, before administration: oral
Method: 12-week-old spontaneously hypertensive rats (hereinafter referred to as SHR, purchased from Beijing Weitong Lihua Experimental Animal Technology Co., Ltd.) were anesthetized with 2.5% sodium pentobarbital for intraperitoneal injection. After that, the blood pressure sensing catheter of hypertension implant was inserted into their abdominal aorta, while the implant was fixed to the abdominal wall, and then postoperative daily care is performed after suturing.
Rats with systolic blood pressure exceeding 160 mm Hg were divided into 3 groups (control group, compound (A) group and compound (B) group), wherein each group has 8 rats. The control group was administrated 0.5% sodium carboxymethylcellulose (hereinafter referred to as CMC-Na); the compound (B) group and the compound (A) group were respectively administered the compound (B) and the compound (A), both of which were dissolved by 0.5% CMC-Na, by intragastric administration, at a dose of 1 mg/kg (calculated by the effective dose of valsartan) and a volume calculated by 4 mL/kg.
The systolic blood pressure and heart rate of SHR were compared before and after administration (the systolic blood pressure and heart rate of SHR before administration as reference value), which were detected three times at each time point with the average value recorded.

[5] = Effect of tabletting processes on the crystalline form II (XRD); format: physicochemical; conditions: 50 mg, single punching machine, XRD vs crude sample
Method: Tabletting method: 50 mg of the crystalline form II was tableted under 20 kg and 25 kg pressure tabletting by a single punching machine.
The XRD of the obtained sample powder was compared with the XRD of the crude sample, the results are shown in FIG. 8 (from top to bottom: the crude sample, the sample after 25 kg pressure tabletting and the sample after 20 kg pressure tabletting).

[6] = Influences of high temperature and high humidity on the crystalline form II (XRD); format: physicochemical; conditions: XRD vs crude sample
Method: Two samples of 20 mg of the crystalline form II were respectively placed at 60° C. (sealed and shielded from light) and 85% relative humidity (exposed in the air at room temperature and shielded from light), detected by XRD after 10 days and compared with the XRD of the crude sample.

[7] = equivalent amounts, 0.2 ml ethyl acetate suspension, stirred overnight, XRD

## CCOc1nc2cccc(C(=O)OC(C)OC(=O)OCc3nc(C)c(C)nc3C)c2n1Cc1ccc(-c2ccccc2-c2noc(=O)[n-]2)cc1.[K+] (centres unmarked) [crystalline form I]
[1]
  Stability at room temperature (drying experiment): superior to that of the crystalline form IV
[2]
  Chemical stability compared with the amorphous form: better than the amorphous form
  total impurity content % at 0 months: 1.11%
  total impurity content % at 1 month: 1.62%
  total impurity content % at 2 months: 2.34%
  total impurity content % at 3 months: 2.49%
  total impurity content % at 6 months: 3.10%
[3]; equivalent amounts of form I and form II, 0.8 ml ethyl acetate suspension, stirred overnight, XRD
  Content of the crystalline form I in the obtained product: about 5%
[3]
  Relative stability under room temperature (competition test): better than that of the crystalline form III

## CCOc1nc2cccc(C(=O)OC(C)OC(=O)OCc3nc(C)c(C)nc3C)c2n1Cc1ccc(-c2ccccc2-c2noc(=O)[n-]2)cc1.[K+] (single isomer, unassigned) [Compound (A)]
[4]; 1 mg/kg
  Lowering of heart rate compared with the compound (B) group: more potent with longer-lasting of lowering heart rate
  Systolic blood pressure compared with the control group: significantly decreased
  Systolic blood pressure change, before administration: 0.0 ± 0.0 mmHg
  Heart rates change, before administration: 0.0 ± 0.0 times/minute
[4]; 1 mg/kg intragastric
  Antihypertensive effect compared with the compound (B) group: more potent with longer-lasting antihypertensive effect
[4]; 1 mg/kg, 1 mg/kg
  Systolic blood pressure change, 1 hour after administration: −7.0 ± 3.4 mmHg
  Systolic blood pressure change, 3 hours after administration: −34.3 ± 1.9 mmHg
  Systolic blood pressure change, 5 hours after administration: −46.5 ± 2.5 mmHg
  Systolic blood pressure change, 7 hours after administration: −49.4 ± 4.1 mmHg
  Systolic blood pressure change, 10 hours after administration: −45.3 ± 3.3 mmHg
  Systolic blood pressure change, 24 hours after administration: −25.9 ± 3.4 mmHg
  Heart rates change, 1 hour after administration: −3.6 ± 2.4 times/minute
  Heart rates change, 3 hours after administration: −5.0 ± 2.5 times/minute
  Heart rates change, 5 hours after administration: −10.1 ± 3.0 times/minute
  Heart rates change, 7 hours after administration: −17.5 ± 3.0 times/minute
  Heart rates change, 10 hours after administration: −25.4 ± 2.4 times/minute
  Heart rates change, 24 hours after administration: −28.6 ± 8 times/minute

## CCOc1nc2cccc(C(=O)OC(C)OC(=O)OCc3nc(C)c(C)nc3C)c2n1Cc1ccc(-c2ccccc2-c2noc(=O)[n-]2)cc1.[K+] (centres unmarked) [mixture of crystalline form I and II]
[2]
  Chemical stability compared with the amorphous form: better than the amorphous form
  total impurity content % at 0 months: 0.90%
  total impurity content % at 1 month: 1.58%
  total impurity content % at 2 months: 2.20%
  total impurity content % at 3 months: 2.40%
  total impurity content % at 6 months: 3.29%

## CCOc1nc2cccc(C(=O)OC(C)OC(=O)OCc3nc(C)c(C)nc3C)c2n1Cc1ccc(-c2ccccc2-c2noc(=O)[n-]2)cc1.[K+] (centres unmarked) [crystalline form III]
[1]; dried overnight at room temperature, XRD
  Portion converted to the crystalline form I: no more than 30%
[1]
  Stability at room temperature (drying experiment): superior to that of the crystalline form IV
[2]
  Chemical stability compared with the amorphous form: better than the amorphous form
  total impurity content % at 0 months: 1.56%
  total impurity content % at 1 month: 2.55%
  total impurity content % at 2 months: 2.98%
  total impurity content % at 3 months: 3.34%
  total impurity content % at 6 months: 3.76%
[3]; [7]
  Crystal form transformation, competition form I vs form III: completely transformed into the crystalline form I
  Crystal form transformation, competition form II vs form III: completely transformed into the crystalline form II

## CCOc1nc2cccc(C(=O)OC(C)OC(=O)OCc3nc(C)c(C)nc3C)c2n1Cc1ccc(-c2ccccc2-c2noc(=O)[n-]2)cc1.[K+] (centres unmarked) [crystalline form II]
[1]
  Stability at room temperature (drying experiment): superior to that of the crystalline form IV
[2]
  Chemical stability compared with the amorphous form: better than the amorphous form
  total impurity content % at 0 months: 1.29%
  total impurity content % at 1 month: 1.43%
  total impurity content % at 2 months: 1.59%
  total impurity content % at 3 months: 1.82%
  total impurity content % at 6 months: 1.87%
[3]
  Relative stability under room temperature (competition test): better than that of the crystalline form I; also recorded: better than that of the crystalline form III
[5]
  Crystal form after tabletting, 20 kg pressure: remains unchanged
  Crystal form after tabletting, 25 kg pressure: remains unchanged
[6]; exposed in the air at room temperature, shielded from light
  Crystal form after 10 days at 85% relative humidity: remains unchanged
[6]; sealed and shielded from light
  Crystal form after 10 days at 60° C.: remains unchanged

## CCOc1nc2cccc(C(=O)OC(C)OC(=O)OCc3nc(C)c(C)nc3C)c2n1Cc1ccc(-c2ccccc2-c2noc(=O)[n-]2)cc1.[K+] (centres unmarked) [crystalline form IV]
[1]; dried at room temperature, XRD
  Crystal form transformation on drying at room temperature: converted to the crystalline form I; also recorded: completely transformed into the crystalline form I
[1]
  Stability at room temperature (drying experiment): poor stability

## CCOc1nc2cccc(C(=O)OC(C)OC(=O)OCc3nc(C)c(C)nc3C)c2n1Cc1ccc(-c2ccccc2-c2noc(=O)[n-]2)cc1.[K+] (single isomer, unassigned) [Compound (B), reference compound]
[4]; 1 mg/kg
  Systolic blood pressure compared with the control group: significantly decreased
  Systolic blood pressure change, before administration: 0.0 ± 0.0 mmHg
  Heart rates change, before administration: 0.0 ± 0.0 times/minute
[4]; 1 mg/kg, 1 mg/kg
  Systolic blood pressure change, 1 hour after administration: −4.9 ± 4.8 mmHg
  Systolic blood pressure change, 3 hours after administration: −22.0 ± 3.6 mmHg
  Systolic blood pressure change, 5 hours after administration: −30.5 ± 3.5 mmHg
  Systolic blood pressure change, 7 hours after administration: −38.8 ± 2.3 mmHg
  Systolic blood pressure change, 10 hours after administration: −33.0 ± 1.7 mmHg
  Systolic blood pressure change, 24 hours after administration: −10.2 ± 2.1 mmHg
  Heart rates change, 1 hour after administration: −3.4 ± 2.6 times/minute
  Heart rates change, 3 hours after administration: −2.33 ± 2.6 times/minute
  Heart rates change, 5 hours after administration: −6.5 ± 2.8 times/minute
  Heart rates change, 7 hours after administration: −6.2 ± 3.0 times/minute
  Heart rates change, 10 hours after administration: −12.3 ± 2.8 times/minute
  Heart rates change, 24 hours after administration: −6.7 ± 2.6 times/minute
